The numbers were not newly measured in patent publication US20200289412A1, “BIOENHANCED SPIRULINA LOZENGE FORMULATION” (priority 2019, published 2020), which cites them from elsewhere.

One data set concerns tumor cell. The conditions noted are these: time-dependent; not directly killing cancer cells.
For data set [1], the system named is human immunodeficiency virus-1 virus (HIV-1).

Consider Spirulina polysaccharide [PSP], for which, in the data set on tumor cell, the tumor cell growth result is recorded as “inhibiting tumor cell growth”.

Turning to calcium spirulan [Ca-Sp], the in vitro replication result (in the data set with human cytomegalovirus; in the data set on mumps virus; in the data set with measles virus; in the data set on Herpes simplex type I; in the data set on influenza A virus; in data set [1]) was “inhibits the in vitro replication” in each case.
